Values after ≈ are worked out from the molar mass of the structure shown. Active and inactive are the calls of the source. The calls are words filed in the database; no cut-off is given here.
Experiments:
[1] = Cytotoxicity against human MCF7/ADR cells assessed as ratio of drug concentration to 2 x drug ED50 at 0.28 uM after 6 days by BCA assay; format: functional, NCI/ADR-RES
[2] = tested on: MCF/ADR; assay: Reversal of P-gp-mediated multidrug resistance in human MCF/ADR cells assessed as ratio of adriamycin ED50 without drug to adriamycin ED50 with drug at 1.07 uM after 6 days by BCA assay; format: cell-based
[3] = Cytotoxicity against human MCF7/ADR cells assessed as ratio of drug concentration to 2 x drug ED50 at 1.07 uM after 6 days by BCA assay; format: functional, NCI/ADR-RES
[4] = tested on: MCF/ADR; assay: Reversal of P-gp-mediated multidrug resistance in human MCF/ADR cells assessed as ratio of adriamycin ED50 without drug to adriamycin ED50 with drug at 0.28 uM after 6 days by BCA assay; format: cell-based
[5] = Cytotoxicity against human MCF7/ADR cells assessed as ratio of drug concentration to 2 x drug ED50 at 0.53 uM after 6 days by BCA assay; format: functional, NCI/ADR-RES
[6] = tested on: MCF/ADR; assay: Reversal of P-gp-mediated multidrug resistance in human MCF/ADR cells assessed as ratio of adriamycin ED50 without drug to adriamycin ED50 with drug at 0.53 uM after 6 days by BCA assay; format: cell-based
[7] = tested on: MCF/ADR; assay: Reversal of P-gp-mediated multidrug resistance in human MCF/ADR cells assessed as enhancement in cytotoxicity of adriamycin; format: cell-based
[8] = tested on: MCF; assay: Reversal of P-gp-mediated multidrug resistance in human MCF cells assessed as enhancement in cytotoxicity of adriamycin; format: cell-based
[9] = tested on: MCF7; assay: Cytotoxicity against human MCF7 cells after 6 days by BCA assay; format: functional; conditions: MCF7, 144 h, read-out: ED50 (the source's name)
[10] = tested on: MCF7; assay: Cytotoxicity against human MCF7 cells after 6 days by coulter counted assay; format: functional; conditions: MCF7, 144 h, read-out: ED50 (the source's name)
[11] = Cytotoxicity against human MCF7/ADR cells after 6 days by BCA assay; format: functional; conditions: NCI/ADR-RES, 144 h, read-out: ED50 (the source's name)
[12] = Cytotoxicity against human MCF7/ADR cells after 6 days by coulter counted assay; format: functional; conditions: NCI/ADR-RES, 144 h, read-out: ED50 (the source's name)
[13] = Cytotoxicity against human MCF7/ADR cells assessed as ratio of drug concentration to 2 x drug ED50 at 1.64 uM after 6 days by BCA assay; format: functional, NCI/ADR-RES
[14] = Cytotoxicity against human MCF7/ADR cells assessed as ratio of drug concentration to 2 x drug ED50 at 0.82 uM after 6 days by BCA assay; format: functional, NCI/ADR-RES
[15] = Cytotoxicity against human MCF7/ADR cells assessed as ratio of drug concentration to 2 x drug ED50 at 3.29 uM after 6 days by BCA assay; format: functional, NCI/ADR-RES
[16] = Cytotoxicity against human MCF7/ADR cells assessed as ratio of drug concentration to 2 x drug ED50 at 1.23 uM after 6 days by BCA assay; format: functional, NCI/ADR-RES
[17] = Cytotoxicity against human MCF7/ADR cells assessed as ratio of drug concentration to 2 x drug ED50 at 0.15 uM after 6 days by BCA assay; format: functional, NCI/ADR-RES
[18] = Cytotoxicity against human MCF7/ADR cells assessed as ratio of drug concentration to 2 x drug ED50 at 0.30 uM after 6 days by BCA assay; format: functional, NCI/ADR-RES
[19] = Displacement of N-(p-azido-[3-125I]salicyl)-N'-beta-aminoethylvindesine from P-glycoprotein at 12.4 uM
[20] = Cytotoxicity against human MCF7/ADR cells assessed as ratio of drug concentration to 2 x drug ED50 at 0.62 uM after 6 days by BCA assay; format: functional, NCI/ADR-RES
[21] = Cytotoxicity against human MCF7/ADR cells assessed as ratio of drug concentration to 2 x drug ED50 at 2.46 uM after 6 days by BCA assay; format: functional, NCI/ADR-RES

Compound: CC[C@H]1CN2CC[C@H]1C[C@H]2[C@@H](Oc1cc(C)c2ccccc2n1)c1ccnc2ccc(OC)cc12
- Ratio [1]: 0.03
- Ratio ED50 [2]: 18
- Ratio [3]: 0.11
- Ratio ED50 [4]: 3
- Ratio [5]: 0.06
- Ratio ED50 [6]: 6

Compound: C=C[C@H]1C[N+]2(Cc3ccccc3)CC[C@H]1C[C@H]2[C@H](O)c1ccnc2ccc(OC)cc12
- Activity [7]: inactive
- Activity [8]: inactive

Compound: COc1ccc(CCN(C)CCCC(C#N)(c2ccc(OC)c(OC)c2)C(C)C)cc1OC (stereo not drawn)
- Activity [8]: inactive

Compound: COc1cccc2c1C(=O)c1c(O)c3c(c(O)c1C2=O)C[C@@](O)(C(=O)CO)C[C@@H]3O[C@H]1C[C@H](N)[C@H](O)[C@H](C)O1 [DOXORUBICIN]
- Activity [8]: Active
- EC50 [9]: 0.0018 µg/mL (≈ 0.00331 µM)
- EC50 [10]: 0.0021 µg/mL (≈ 0.00386 µM)
- EC50 [11]: 0.47 µg/mL (≈ 0.865 µM)
- EC50 [12]: 2.7 µg/mL (≈ 4.97 µM)

Compound: COC(=O)[C@H]1[C@H]2C[C@H]3c4[nH]c5cc(OC)ccc5c4CCN3C[C@H]2C[C@@H](OC(=O)c2cc(OC)c(OC)c(OC)c2)[C@@H]1OC [ISORESERPINE]
- Ratio [13]: 0.09
- Ratio [14]: 0.04
- Ratio [15]: 0.17

Compound: COC(=O)[C@H]1[C@H]2C[C@@H]3c4[nH]c5cc(OC)ccc5c4CCN3C[C@H]2C[C@@H](OC(=O)c2cc(OC)c(OC)c(OC)c2)[C@@H]1OC [RESERPINE]
- Ratio [16]: 0.04
- Ratio [17]: 0.05
- Ratio [18]: 0.009
- Activity [19]: 79.2%
- Ratio [20]: 0.02
- Ratio [21]: 0.08

Reference: ChEMBL document CHEMBL1151677, “Bicinchoninic acid protein assay in the determination of adriamycin cytotoxicity modulated by the MDR glycoprotein” (1996)
